Measurements published in PubChem BioAssay (NCI).
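Briefly, cells in 96-well plates were exposed to five compound concentrations for 48 h, and endpoints were estimated by linear interpolation. Definition used: TGI = concentration required for complete inhibition of growth.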

Experiments:
Assay in all cases: NCI tumour cell line growth inhibition, 48 h
DLD-1 colon = system: DLD-1 colon
DMS 114 small cell lung = system: DMS 114 small cell lung
KM20L2 colon = system: KM20L2 colon
LXFL 529 NSCLC = system: LXFL 529 NSCLC
SNB-78 CNS = system: SNB-78 CNS
DMS 273 small cell lung = system: DMS 273 small cell lung
HOP-18 NSCLC = system: HOP-18 NSCLC
XF 498 CNS = system: XF 498 CNS
M19-MEL melanoma = system: M19-MEL melanoma
RXF-631 renal = system: RXF-631 renal
P388 leukemia = system: P388 leukemia
P388/ADR leukemia = system: P388/ADR leukemia
SN12K1 renal = system: SN12K1 renal

Structure (SMILES) | TGI (DLD-1 colon) | TGI (DMS 114 small cell lung) | TGI (KM20L2 colon) | TGI (LXFL 529 NSCLC) | TGI (SNB-78 CNS) | TGI (DMS 273 small cell lung) | TGI (HOP-18 NSCLC) | TGI (XF 498 CNS) | TGI (M19-MEL melanoma) | TGI (RXF-631 renal) | TGI (P388 leukemia) | TGI (P388/ADR leukemia) | TGI (SN12K1 renal)
CC(=O)c1ccc(Oc2ccc(/C(C)=N\N=C(N)N)cc2)cc1 | 14.3 µM | 4.98 µM | 3.43 µM | 17.4 µM | 16.6 µM |  |  |  |  |  |  |  | 
Cc1ccc(C(=O)C(C)N)cc1 (stereo not drawn) | > 100 µM | > 100 µM | > 100 µM | > 100 µM | > 100 µM | > 100 µM | > 100 µM | > 100 µM |  |  |  |  | 
C=C1c2c(cc3c(c2O)c(=O)c2ccccc2n3C)OC1(C)C | > 100 µM | > 100 µM | > 100 µM | > 100 µM | > 100 µM | > 100 µM | > 100 µM | 57.2 µM | > 100 µM | > 100 µM |  |  | 
Cc1c(-c2cc3n(n2)C(c2cccs2)C(C#N)=C(c2ccccc2)N3)c(=O)n(-c2ccccc2)n1C (stereo not drawn) | > 100 µM | > 100 µM | > 31.6 µM |  | > 100 µM | > 100 µM | > 100 µM | > 100 µM | > 100 µM |  | > 100 µM | > 100 µM | > 100 µM
CC(=O)[O-].CC(=O)[O-].O=C(N/N=C/c1cc(Cl)cc(Cl)c1[OH2+])c1ccncc1.[Co+2] |  |  | > 100 µM |  |  |  |  |  |  |  |  |  | 
O=C(NO)c1coc2ccccc2c1=O | > 100 µM | > 100 µM | > 100 µM | > 100 µM | > 100 µM | > 100 µM |  |  |  | > 100 µM |  |  | 
CC(C)(C)[Si](C)(C)OCCCC#CCO | > 100 µM | > 100 µM | > 100 µM | > 100 µM | > 100 µM | > 100 µM |  | > 100 µM |  | > 100 µM |  |  | 
NC(=O)CCC(NCc1c2ccccc2[n+]([O-])c2ccccc12)C(=O)O (stereo not drawn) | > 100 µM | > 100 µM | > 100 µM | > 100 µM | > 100 µM | > 100 µM | > 100 µM |  | > 100 µM |  |  |  | 
